In patent publication US8431565B2 (priority 2007, dated 2013):

Biological target: T1, rat CB2 receptor (rCB2) (Rattus norvegicus, UniProt Q9QZN9)
T1 sequence (Q9QZN9 1-360): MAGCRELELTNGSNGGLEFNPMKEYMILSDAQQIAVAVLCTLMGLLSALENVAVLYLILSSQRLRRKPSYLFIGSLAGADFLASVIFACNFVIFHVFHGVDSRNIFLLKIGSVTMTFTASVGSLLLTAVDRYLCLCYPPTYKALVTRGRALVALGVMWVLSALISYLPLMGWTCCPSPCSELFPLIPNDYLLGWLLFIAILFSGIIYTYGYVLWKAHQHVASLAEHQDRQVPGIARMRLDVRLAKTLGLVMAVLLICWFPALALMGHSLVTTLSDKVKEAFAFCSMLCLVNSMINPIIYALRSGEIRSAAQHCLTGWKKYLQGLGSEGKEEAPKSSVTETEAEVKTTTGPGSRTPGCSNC

SMILES | EC50
CNC(=O)[C@@H](NC(=O)c1nc(C2=CCNCC2)n2c1CN(C)CC2)C(C)(C)C [Compound 274, (S)-N-(3,3-dimethyl-1-(methylamino)-1-oxobutan-2-yl)-7-methyl-3-(1,2,3,6-tetrahydropyridin-4-yl)-5,6,7,8-tetrahydroimidazo[1,5-a]pyrazine-1-carboxamide] | 10 to 100 nM
CNC(=O)[C@@H](NC(=O)c1nc(-c2ccccc2)n2c1CN(C(=O)C(C)C)CC2)C(C)(C)C [Compound 191, (S)-N-(3,3-dimethyl-1-(methylamino)-1-oxobutan-2-yl)-7-isobutyryl-3-phenyl-5,6,7,8-tetrahydroimidazo[1,5-a]pyrazine-1-carboxamide] | 10 to 100 nM
O=C(NC1CCCCC1)c1nc(-c2ccccc2)n2c1CN(CC1CCOC1)CC2 (centres unmarked) [Compound 141, N-cyclohexyl-3-phenyl-7-((tetrahydrofuran-3-yl)methyl)-5,6,7,8-tetrahydroimidazo[1,5-a]pyrazine-1-carboxamide] | 10 to 100 nM
CCN1CCn2c(-c3ccc(Cl)cc3)nc(C(=O)N[C@H](CO)C(C)(C)C)c2C1 [Compound 161, (S)-3-(4-chlorophenyl)-7-ethyl-N-(1-hydroxy-3,3-dimethylbutan-2-yl)-5,6,7,8-tetrahydroimidazo[1,5-a]pyrazine-1-carboxamide] | 10 to 100 nM
CC(C)(C)[C@@H](CO)NC(=O)c1nc(-c2ccccc2)n2c1CN(CC1CC1)CC2 [Compound 84, (S)-7-(cyclopropylmethyl)-N-(1-hydroxy-3,3-dimethylbutan-2-yl)-3-phenyl-5,6,7,8-tetrahydroimidazo[1,5-a]pyrazine-1-carboxamide] | 10 to 100 nM
CCN1CCn2c(-c3ccccc3)nc(C(=O)N[C@H](C)C3CCCCC3)c2C1 [Compound 164, (R)-N-(1-cyclohexylethyl)-7-ethyl-3-phenyl-5,6,7,8-tetrahydroimidazo[1,5-a]pyrazine-1-carboxamide] | 10 to 100 nM
CNC(=O)[C@@H](NC(=O)c1nc(-c2cccc(C(F)(F)F)c2)n2c1CN(C)CCC2)C(C)(C)C [Compound 438, (S)-N-(3,3-dimethyl-1-(methylamino)-1-oxobutan-2-yl)-8-methyl-3-(3-(trifluoromethyl)phenyl)-6,7,8,9-tetrahydro-5H-imidazo[1,5-a][1,4]diazepine-1-carboxamide] | 10 to 100 nM
CC(C)(C)OC(=O)N1CCn2c(-c3ccc(Cl)cc3)nc(C(=O)N[C@H](CO)C(C)(C)C)c2C1 (stereo in doubt) [Compound 34, tert-butyl 3-(4-chlorophenyl)-1-(1-hydroxy-3,3-dimethylbutan-2-ylcarbamoyl)-5,6-dihydroimidazo[1,5-a]pyrazine-7(8H)-carboxylate] | 10 to 100 nM
CNC(=O)[C@@H](NC(=O)c1nc(-c2cc(C)ccc2F)n2c1CN(C)CC2)C(C)(C)C [Compound 251, (S)-N-(3,3-dimethyl-1-(methylamino)-1-oxobutan-2-yl)-3-(2-fluoro-5-methylphenyl)-7-methyl-5,6,7,8-tetrahydroimidazo[1,5-a]pyrazine-1-carboxamide] | 10 to 100 nM
CNC(=O)[C@@H](NC(=O)c1nc(-c2ccccc2)n2c1CN(Cc1ccco1)CC2)C(C)(C)C [Compound 64, (S)-N-(3,3-dimethyl-1-(methylamino)-1-oxobutan-2-yl)-7-(furan-2-ylmethyl)-3-phenyl-5,6,7,8-tetrahydroimidazo[1,5-a]pyrazine-1-carboxamide] | 10 to 100 nM
C[C@@H](NC(=O)c1nc(-c2ccccc2)n2c1CN(C(=O)C(C)(C)C)CC2)C1CCCCC1 [Compound 133, (R)-N-(1-cyclohexylethyl)-3-phenyl-7-pivaloyl-5,6,7,8-tetrahydroimidazo[1,5-a]pyrazine-1-carboxamide] | 10 to 100 nM
CC(C)(C)CNC(=O)c1nc(-c2ccccc2)n2c1CN(S(=O)(=O)c1ccccc1)CC2 [Compound 104, N-neopentyl-3-phenyl-7-(phenylsulfonyl)-5,6,7,8-tetrahydroimidazo[1,5-a]pyrazine-1-carboxamide] | 10 to 100 nM
CC(C)CCNC(=O)c1nc(-c2ccc(Cl)cc2)n2c1CN(CC(C)C)CC2 [Compound 157, 3-(4-chlorophenyl)-7-isobutyl-N-isopentyl-5,6,7,8-tetrahydroimidazo[1,5-a]pyrazine-1-carboxamide] | 10 to 100 nM
CC(C)CN1CCn2c(-c3ccccc3)nc(C(=O)N[C@H](C)C3CCCCC3)c2C1 [Compound 163, (R)-N-(1-cyclohexylethyl)-7-isobutyl-3-phenyl-5,6,7,8-tetrahydroimidazo[1,5-a]pyrazine-1-carboxamide] | 0.1 to 10 nM
CC(C)CN1CCn2c(-c3ccccc3)nc(C(=O)NCC(C)(C)C)c2C1 [Compound 58, 7-isobutyl-N-neopentyl-3-phenyl-5,6,7,8-tetrahydroimidazo[1,5-a]pyrazine-1-carboxamide] | 10 to 100 nM
CNC(=O)[C@@H](NC(=O)c1nc(-c2ccccc2)n2c1CN(CC(C)C)CC2)C(C)(C)C [Compound 148, (S)-N-(3,3-dimethyl-1-(methylamino)-1-oxobutan-2-yl)-7-isobutyl-3-phenyl-5,6,7,8-tetrahydroimidazo[1,5-a]pyrazine-1-carboxamide] | 10 to 100 nM
CNC(=O)[C@@H](NC(=O)c1nc(-c2ccsc2)n2c1CN(CC1CC1)CC2)C(C)(C)C [Compound 74, (S)-7-(cyclopropylmethyl)-N-(3,3-dimethyl-1-(methylamino)-1-oxobutan-2-yl)-3-(thiophen-3-yl)-5,6,7,8-tetrahydroimidazo[1,5-a]pyrazine-1-carboxamide] | 10 to 100 nM
CC(C)(C)OC(=O)N1CCn2c(-c3ccccc3)nc(C(=O)NC3C4(C)CCC(C4)C3(C)C)c2C1 (centres unmarked) [Compound 30, tert-butyl 3-phenyl-1-(1,3,3-trimethylbicyclo[2.2.1]heptan-2-ylcarbamoyl)-5,6-dihydroimidazo[1,5-a]pyrazine-7(8H)-carboxylate] | 10 to 100 nM
CNC(=O)[C@@H](NC(=O)c1nc(/C=C/Cc2ccccc2)n2c1CN(C)CCC2)C(C)(C)C [Compound 458, (S,E)-N-(3,3-dimethyl-1-(methylamino)-1-oxobutan-2-yl)-8-methyl-3-(3-phenylprop-1-enyl)-6,7,8,9-tetrahydro-5H-imidazo[1,5-a][1,4]diazepine-1-carboxamide] | 10 to 100 nM
CNC(=O)[C@@H](NC(=O)c1nc(-c2ccc(Cl)cc2)n2c1CN(C)CC2)C(C)(C)C [Compound 49, (S)-3-(4-chlorophenyl)-N-(3,3-dimethyl-1-(methylamino)-1-oxobutan-2-yl)-7-methyl-5,6,7,8-tetrahydroimidazo[1,5-a]pyrazine-1-carboxamide] | 10 to 100 nM
CNC(=O)[C@@H](NC(=O)c1nc(-c2ccccc2)n2c1CN(S(C)(=O)=O)CC2)C(C)(C)C [Compound 92, (S)-N-(3,3-dimethyl-1-(methylamino)-1-oxobutan-2-yl)-7-(methylsulfonyl)-3-phenyl-5,6,7,8-tetrahydroimidazo[1,5-a]pyrazine-1-carboxamide] | 10 to 100 nM
CNC(=O)[C@@H](NC(=O)c1nc(-c2ccccc2)n2c1CN(C1CC1)CC2)C(C)(C)C [Compound 197, (S)-7-cyclopropyl-N-(3,3-dimethyl-1-(methylamino)-1-oxobutan-2-yl)-3-phenyl-5,6,7,8-tetrahydroimidazo[1,5-a]pyrazine-1-carboxamide] | 10 to 100 nM
CNC(=O)[C@@H](NC(=O)c1nc(-c2ccccc2)n2c1CN(S(=O)(=O)C(C)C)CC2)C(C)(C)C [Compound 94, (S)-N-(3,3-dimethyl-1-(methylamino)-1-oxobutan-2-yl)-7-(isopropylsulfonyl)-3-phenyl-5,6,7,8-tetrahydrimidazo[1,5-a]pyrazine-1-carboxamide] | 10 to 100 nM
CC(C)CN1CCn2c(-c3ccccc3)nc(C(=O)N[C@H](C)C(C)(C)C)c2C1 [Compound 52, (R)-N-(3,3-dimethylbutan-2-yl)-7-isobutyl-3-phenyl-5,6,7,8-tetrahydrimidazo[1,5-a]pyrazine-1-carboxamide] | 0.1 to 10 nM
COC(=O)N1CCn2c(-c3ccc(Cl)cc3)nc(C(=O)N[C@H](CO)C(C)(C)C)c2C1 [Compound 184, (S)-methyl 3-(4-chlorophenyl)-1-(1-hydroxy-3,3-dimethylbutan-2-ylcarbamoyl)-5,6-dihydroimidazo[1,5-a]pyrazine-7(8H)-carboxylate] | 10 to 100 nM
CNC(=O)[C@@H](NC(=O)c1nc(-c2ccc(F)c(C)c2)n2c1CNCC2)C(C)(C)C [Compound 7, (S)-N-(3,3-dimethyl-1-(methylamino)-1-oxobutan-2-yl)-3-(4-fluoro-3-methylphenyl)-5,6,7,8-tetrahydroimidazo[1,5-a]pyrazin-1-carboxamide] | 10 to 100 nM
Cc1ccc(-c2nc(C(=O)N[C@H](c3nc(C)no3)C(C)(C)C)c3n2CCCN(C(=O)OC(C)(C)C)C3)c(F)c1 [Compound 518, (S)-tert-butyl 1-(2,2-dimethyl-1-(3-methyl-1,2,4-oxadiazol-5-yl)propylcarbamoyl)-3-(2-fluoro-4-methylphenyl)-6,7-dihydro-5H-imidazo[1,5-a][1,4]diazepine-8(9H)-carboxylate] | 10 to 100 nM
CC12CCC(C1)C(C)(C)C2NC(=O)c1nc(-c2ccccc2)n2c1CN(C(=O)C1CC1)CC2 (centres unmarked) [Compound 119, 7-(cyclopropanecarbonyl)-3-phenyl-N-(1,3,3-trimethyl-bicyclo[2.2.1]heptan-2-yl)-5,6,7,8-tetrahydroimidazo[1,5-a]pyrazine-1-carboxamide] | 10 to 100 nM
CC(C)(C)c1noc([C@@H](NC(=O)c2nc(-c3ccccc3)n3c2CN(C2CC2)CC3)C(C)(C)C)n1 [Compound 284, (S)-N-(1-(3-tert-butyl-1,2,4-oxadiazol-5-yl)-2,2-dimethylpropyl)-7-cyclopropyl-3-phenyl-5,6,7,8-tetrahydroimidazo[1,5-a]pyrazine-1-carboxamide] | 0.1 to 10 nM
